Results reported in patent US10004225B2, “Wearable insect repelling patch” (S. C. Johnson & Son, Inc., priority 2005, dated 2018).

System: mosquitoes
Test: Field test in southern Florida, one-minute biting count on lower leg of human test subjects wearing patches
Assay type: in vivo
Excerpt: We also conducted some field tests of the present invention in southern Florida using patches 10 dosed with metofluthrin. Human test subjects and designated untreated control entered the test site, each test subject being separated by a minimum of 25 meters (approx. 75 feet). Shortly after all test subjects and an untreated control were set up in the test site, a 15 second ‘nuisance’ pre-count was taken by counting or best estimating the number of mosquitoes landing or touching the visual areas on the test suit.
Directly after the ‘nuisance’ count, a one-minute biting pre-count of a lower leg was taken. The pre-count began by having each subject roll up one pant leg to the knee then count the number of mosquitoes landing or biting on the exposed skin over a one minute period. Once a mosquito landed, the insect was pushed away (flicked, swatted or other) from the leg.
After the precounts were made, each test subject attached insect repellent patches 10 to predetermined areas on the test suit. The location of the patches is described below.
Mosquito land or bite counts were then made as described above for the pre-counts, with counts taken every 5 minutes for the first 20 minutes. After the 20 minute count, the test subjects and controls moved locations, walking approximately 15 meters. This was followed by their immediately taking a 15-second nuisance and one-minute biting count. Additional counts were then made at 25 and 30 minutes at that new location. After the 30 minute counts, the test subjects and controls moved location again, walking approximately 15 meters. This is followed by their immediately taking a 15-second nuisance and the one-minute biting count. An additional count was then made again at 35 minutes. The test was concluded after the 35 minute count.
The patches 10 used in the test were treated with metofluthrin, the 103 cm^2 patches bearing 60 mg and the 51.6 cm^2 patches bearing about 30 mg of metofluthrin. The patch material was selected either from a substrate made of a nylon-type material or from a non-woven cloth made of rayon, polyester, polypropylene, and polyethylene fibers. No difference in performance between the two materials was detected.
When four, 103 cm^2 patch samples were used, the patches were placed on the side of each shoulder and on the outwardly facing side of each knee. For the four, 51.6 cm^2 patch samples, the patches were placed on the side of each shoulder and on the top of the shoe. The 103 cm^2 patches were too big to place on the shoe, and therefore only the 51.6 cm^2 patches were placed there. For the two, 51.6 cm^2 patch testing, one patch was placed on one shoulder and another was placed on the outwardly facing side of the opposing knee.
The Average Percent Biting Repellency was calculated using the following formula:
C2=control count at time corresponding with treatment count
T1=precount for test area
T2=test area count at designated time
The percent repellency was calculated by the following formula: […]

CC=C[C@@H]1[C@@H](C(=O)OCc2c(F)c(F)c(COC)c(F)c2F)C1(C)C (racemic) [metofluthrin, 2,3,5,6-tetrafluoro-4-methoxymethylbenzyl (EZ)-(1RS,3RS)-2,2-dimethyl-3-(prop-1-enyl)-cyclopropanecarboxylate]
Percent Biting Repellency (2 patches (51.6 cm^2, about 30 mg each), 3 reps, 0 min): 0% | Percent Biting Repellency (2 patches (51.6 cm^2, about 30 mg each), 3 reps, 5 min): 42% | Percent Biting Repellency (2 patches (51.6 cm^2, about 30 mg each), 3 reps, 10 min): 60% | Percent Biting Repellency (2 patches (51.6 cm^2, about 30 mg each), 3 reps, 15 min): 90% | Percent Biting Repellency (2 patches (51.6 cm^2, about 30 mg each), 3 reps, 20 min): 81% | Percent Biting Repellency (2 patches (51.6 cm^2, about 30 mg each), 3 reps, 21 min, immediately after moving approx. 15 meters): 13% | Percent Biting Repellency (2 patches (51.6 cm^2, about 30 mg each), 3 reps, 25 min): 82% | Percent Biting Repellency (2 patches (51.6 cm^2, about 30 mg each), 3 reps, 30 min): 81% | Percent Biting Repellency (2 patches (51.6 cm^2, about 30 mg each), 3 reps, 31 min, immediately after moving approx. 15 meters): 44% | Percent Biting Repellency (2 patches (51.6 cm^2, about 30 mg each), 3 reps, 35 min): 73% | Percent Biting Repellency (3 patches (103 cm^2, 60 mg each), 2 reps, 0 min): 0% | Percent Biting Repellency (3 patches (103 cm^2, 60 mg each), 2 reps, 5 min): 75% | Percent Biting Repellency (3 patches (103 cm^2, 60 mg each), 2 reps, 10 min): 100% | Percent Biting Repellency (3 patches (103 cm^2, 60 mg each), 2 reps, 15 min): 100% | Percent Biting Repellency (3 patches (103 cm^2, 60 mg each), 2 reps, 20 min): 100% | Percent Biting Repellency (3 patches (103 cm^2, 60 mg each), 2 reps, 21 min, immediately after moving approx. 15 meters): 16% | Percent Biting Repellency (3 patches (103 cm^2, 60 mg each), 2 reps, 25 min): 84% | Percent Biting Repellency (3 patches (103 cm^2, 60 mg each), 2 reps, 30 min): 84% | Percent Biting Repellency (3 patches (103 cm^2, 60 mg each), 2 reps, 31 min, immediately after moving approx. 15 meters): 64% | Percent Biting Repellency (3 patches (103 cm^2, 60 mg each), 2 reps, 35 min): 100% | Percent Biting Repellency (4 patches (103 cm^2), 2 reps, 0 min): 0% | Percent Biting Repellency (4 patches (103 cm^2), 2 reps, 5 min): 96% | Percent Biting Repellency (4 patches (103 cm^2), 2 reps, 10 min): 100% | Percent Biting Repellency (4 patches (103 cm^2), 2 reps, 15 min): 100% | Percent Biting Repellency (4 patches (103 cm^2), 2 reps, 20 min): 88% | Percent Biting Repellency (4 patches (103 cm^2), 2 reps, 21 min, immediately after moving approx. 15 meters): 33% | Percent Biting Repellency (4 patches (103 cm^2), 2 reps, 25 min): 50% | Percent Biting Repellency (4 patches (103 cm^2), 2 reps, 30 min): 73% | Percent Biting Repellency (4 patches (103 cm^2), 2 reps, 31 min, immediately after moving approx. 15 meters): 22% | Percent Biting Repellency (4 patches (103 cm^2), 2 reps, 35 min): 96% | Percent Biting Repellency (4 patches (103 cm^2, 60 mg each), 1 rep, 0 min): 0% | Percent Biting Repellency (4 patches (103 cm^2, 60 mg each), 1 rep, 5 min): 85% | Percent Biting Repellency (4 patches (103 cm^2, 60 mg each), 1 rep, 10 min): 94% | Percent Biting Repellency (4 patches (103 cm^2, 60 mg each), 1 rep, 15 min): 100% | Percent Biting Repellency (4 patches (103 cm^2, 60 mg each), 1 rep, 20 min): 92% | Percent Biting Repellency (4 patches (103 cm^2, 60 mg each), 1 rep, 21 min, immediately after moving approx. 15 meters): 85% | Percent Biting Repellency (4 patches (103 cm^2, 60 mg each), 1 rep, 25 min): 81% | Percent Biting Repellency (4 patches (103 cm^2, 60 mg each), 1 rep, 30 min): 100% | Percent Biting Repellency (4 patches (103 cm^2, 60 mg each), 1 rep, 31 min, immediately after moving approx. 15 meters): 61% | Percent Biting Repellency (4 patches (103 cm^2, 60 mg each), 1 rep, 35 min): 94% | personal area repellency in field test (result in words) (patch sizes, dosages and locations of Example 3, even after user moved to a new location): can successfully provide personal area repellency within a very brief time
